Measurements from patent publication US20080051387A1, “TETRAHYDROPYRIDO[3,4-D]PYRIMIDINES AND RELATED ANALOGUES” (priority 2006, published 2008).

The compounds below were run against T1, chimeric human H3 receptor (Homo sapiens, UniProt Q9Y5N1) (assay: Chimeric human H3 receptor screening GTP binding assay (inhibition of histamine-stimulated GTP-gamma35S binding, Example 8)). Details: symbol ! in Ki; test compound 4 μM, 1 μM histamine; read-out: percent inhibition of agonist-induced GTP-gammaS binding to H3.
T1 construct: rat Galpha-i2 (Gnai2, rat); made in house; host or cells: Sf9 insect cells (baculovirus); P2 membranes
T1 sequence (Q9Y5N1 with tags, fused parts or gaps): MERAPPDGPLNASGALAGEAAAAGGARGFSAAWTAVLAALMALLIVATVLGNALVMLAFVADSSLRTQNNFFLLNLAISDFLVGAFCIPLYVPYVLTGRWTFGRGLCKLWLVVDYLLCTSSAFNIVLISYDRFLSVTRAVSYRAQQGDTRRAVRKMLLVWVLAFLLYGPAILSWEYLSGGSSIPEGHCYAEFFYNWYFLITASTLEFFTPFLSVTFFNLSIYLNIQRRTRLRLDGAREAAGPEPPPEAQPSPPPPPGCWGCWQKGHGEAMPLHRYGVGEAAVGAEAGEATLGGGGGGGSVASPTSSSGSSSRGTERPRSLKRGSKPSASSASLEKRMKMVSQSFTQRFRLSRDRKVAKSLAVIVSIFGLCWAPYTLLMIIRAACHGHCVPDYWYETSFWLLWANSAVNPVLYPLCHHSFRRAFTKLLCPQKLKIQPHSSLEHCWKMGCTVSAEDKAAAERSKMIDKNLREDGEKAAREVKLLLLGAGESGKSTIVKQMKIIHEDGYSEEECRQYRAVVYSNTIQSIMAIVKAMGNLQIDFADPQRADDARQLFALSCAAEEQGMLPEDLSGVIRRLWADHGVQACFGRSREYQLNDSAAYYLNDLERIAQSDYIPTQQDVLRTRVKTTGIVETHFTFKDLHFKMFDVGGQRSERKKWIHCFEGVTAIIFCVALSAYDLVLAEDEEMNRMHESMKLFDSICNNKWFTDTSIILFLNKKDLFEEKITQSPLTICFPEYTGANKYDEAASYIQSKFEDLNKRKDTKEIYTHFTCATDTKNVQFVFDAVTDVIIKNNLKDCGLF
Type: biochemical
Outline: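 Sf9 membranes co-expressing chimeric human H3 receptor and heterotrimeric G-protein (35 μg protein) incubated 60 min at room temperature with 4 μM compound, 1 μM histamine and 125 pM GTP-gamma35S in pH 7.4 buffer with 10 μM GDP. Filter-bound radioactivity, nonspecific (10 μM GTP-gammaS) subtracted, reported as % inhibition of histamine signal.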

| inhibition at 4 µM [%] | SMILES |
| --- | --- |
| ≥ 90 | c1ccc(CN2CCc3ncnc(N4CCN(C5CCCC5)CC4)c3C2)cc1 [Compound 141, 6-benzyl-4-(4-cyclopentylpiperazin-1-yl)-5,6,7,8-tetrahydropyrido[4,3-d]pyrimidine] |
| ≥ 90 | Fc1ccccc1CN1CCc2ncnc(N3CCN(C4CCC4)CC3)c2CC1 [Compound 145, 4-(4-cyclobutylpiperazin-1-yl)-7-(2-fluorobenzyl)-6,7,8,9-tetrahydro-5H-pyrimido[4,5-d]azepine] |
| ≥ 90 | Fc1cccc(CN2CCc3ncnc(N4CCN(C5CCC5)CC4)c3CC2)c1 [Compound 146, 4-(4-cyclobutylpiperazin-1-yl)-7-(3-fluorobenzyl)-6,7,8,9-tetrahydro-5H-pyrimido[4,5-d]azepine] |
| ≥ 90 | Fc1ccc(CN2CCc3ncnc(N4CCN(C5CCC5)CC4)c3CC2)cc1 [Compound 147, 4-(4-cyclobutylpiperazin-1-yl)-7-(4-fluorobenzyl)-6,7,8,9-tetrahydro-5H-pyrimido[4,5-d]azepine] |
| ≥ 90 | Cc1cccc(CN2CCc3ncnc(N4CCN(C5CCC5)CC4)c3CC2)c1 [Compound 148, 4-(4-cyclobutylpiperazin-1-yl)-7-(3-methylbenzyl)-6,7,8,9-tetrahydro-5H-pyrimido[4,5-d]azepine] |
| ≥ 90 | Cc1ccc(CN2CCc3ncnc(N4CCN(C5CCC5)CC4)c3CC2)cc1 [Compound 149, 4-(4-cyclobutylpiperazin-1-yl)-7-(4-methylbenzyl)-6,7,8,9-tetrahydro-5H-pyrimido[4,5-d]azepine] |
| ≥ 90 | Cn1ccnc1CN1CCc2ncnc(N3CCN(C4CCC4)CC3)c2CC1 [Compound 150, 4-(4-cyclobutylpiperazin-1-yl)-7-[(1-methyl-1H-imidazol-2-yl)methyl]-6,7,8,9-tetrahydro-5H-pyrimido[4,5-d]azepine] |
| ≥ 90 | c1ccc2c(CN3CCc4ncnc(N5CCN(C6CCC6)CC5)c4CC3)ccnc2c1 [Compound 151, 4-(4-cyclobutylpiperazin-1-yl)-7-(quinolin-4-ylmethyl)-6,7,8,9-tetrahydro-5H-pyrimido[4,5-d]azepine] |
| ≥ 90 | c1ccc2ncc(CN3CCc4ncnc(N5CCN(C6CCC6)CC5)c4CC3)cc2c1 [Compound 152, 4-(4-cyclobutylpiperazin-1-yl)-7-(quinolin-3-ylmethyl)-6,7,8,9-tetrahydro-5H-pyrimido[4,5-d]azepine] |
| ≥ 90 | Cc1cccc(CN2CCc3ncnc(N4CCN(C5CCC5)CC4)c3CC2)n1 [Compound 153, 4-(4-cyclobutylpiperazin-1-yl)-7-[(6-methylpyridin-2-yl)methyl]-6,7,8,9-tetrahydro-5H-pyrimido[4,5-d]azepine] |
| ≥ 90 | c1cncc(CN2CCc3ncnc(N4CCN(C5CCC5)CC4)c3CC2)c1 [Compound 154, 4-(4-cyclobutylpiperazin-1-yl)-7-(pyridin-3-ylmethyl)-6,7,8,9-tetrahydro-5H-pyrimido[4,5-d]azepine] |
| ≥ 90 | COc1ccccc1CN1CCc2ncnc(N3CCN(C4CCC4)CC3)c2CC1 [Compound 157, 4-(4-cyclobutylpiperazin-1-yl)-7-(2-methoxybenzyl)-6,7,8,9-tetrahydro-5H-pyrimido[4,5-d]azepine] |
| ≥ 90 | COc1ccc(CN2CCc3ncnc(N4CCN(C5CCC5)CC4)c3CC2)c(OC)c1 [Compound 158, 4-(4-cyclobutylpiperazin-1-yl)-7-(2,4-dimethoxybenzyl)-6,7,8,9-tetrahydro-5H-pyrimido[4,5-d]azepine] |
| ≥ 90 | CC(C)c1ccc(CN2CCc3ncnc(N4CCN(C5CCC5)CC4)c3CC2)cc1 [Compound 159, 4-(4-cyclobutylpiperazin-1-yl)-7-(4-isopropylbenzyl)-6,7,8,9-tetrahydro-5H-pyrimido[4,5-d]azepine] |
| ≥ 90 | CCN1CCc2ncnc(N3CCN(C4CCC4)CC3)c2CC1 [Compound 160, 4-(4-cyclobutylpiperazin-1-yl)-7-ethyl-6,7,8,9-tetrahydro-5H-pyrimido[4,5-d]azepine] |
| ≥ 90 | CCCN1CCc2ncnc(N3CCN(C4CCC4)CC3)c2CC1 [Compound 162, 4-(4-cyclobutylpiperazin-1-yl)-7-propyl-6,7,8,9-tetrahydro-5H-pyrimido[4,5-d]azepine] |
| ≥ 90 | Cc1ccc(CN2CCc3ncnc(N4CCN(C5CCC5)CC4)c3CC2)cc1C [Compound 172, 4-(4-cyclobutylpiperazin-1-yl)-7-(3,4-dimethylbenzyl)-6,7,8,9-tetrahydro-5H-pyrimido[4,5-d]azepine] |
| ≥ 90 | c1ccc2nc(CN3CCc4ncnc(N5CCN(C6CCC6)CC5)c4CC3)ccc2c1 [Compound 174, 4-(4-cyclobutylpiperazin-1-yl)-7-(quinolin-2-ylmethyl)-6,7,8,9-tetrahydro-5H-pyrimido[4,5-d]azepine] |
| ≥ 90 | COc1cccc(CN2CCc3ncnc(N4CCN(C5CCC5)CC4)c3CC2)c1OC [Compound 175, 4-(4-cyclobutylpiperazin-1-yl)-7-(2,3-dimethoxybenzyl)-6,7,8,9-tetrahydro-5H-pyrimido[4,5-d]azepine] |
| ≥ 90 | COc1ccc(OC)c(CN2CCc3ncnc(N4CCN(C5CCC5)CC4)c3CC2)c1 [Compound 176, 4-(4-cyclobutylpiperazin-1-yl)-7-(2,5-dimethoxybenzyl)-6,7,8,9-tetrahydro-5H-pyrimido[4,5-d]azepine] |
| ≥ 90 | CCn1cncc1CN1CCc2ncnc(N3CCN(C4CCC4)CC3)c2CC1 [Compound 177, 4-(4-cyclobutylpiperazin-1-yl)-7-[(1-ethyl-1H-imidazol-5-yl)methyl]-6,7,8,9-tetrahydro-5H-pyrimido[4,5-d]azepine] |

Second part, the compound before the results:

| SMILES | inhibition at 4 µM [%] |
| --- | --- |
| CNC(=O)c1ccc(CN2CCc3c(ncnc3N3CCN(C4CCC4)CC3)C2)cc1 [Compound 140, 4-{[4-(4-cyclobutylpiperazin-1-yl)-5,8-dihydropyrido[3,4-d]pyrimidin-7(6H)-yl]methyl}-N-methylbenzamide] | ≥ 90 |
| c1nc2c(c(N3CCN(C4CCC4)CC3)n1)CCN(Cc1ccc(N3CCOCC3)nc1)CC2 [Compound 155, 4-(4-cyclobutylpiperazin-1-yl)-7-[(6-morpholin-4-ylpyridin-3-yl)methyl]-6,7,8,9-tetrahydro-5H-pyrimido[4,5-d]azepine] | ≥ 90 |
| Cc1cc(CN2CCc3ncnc(N4CCN(C5CCC5)CC4)c3CC2)n(C)n1 [Compound 156, 4-(4-cyclobutylpiperazin-1-yl)-7-[(1,3-dimethyl-1H-pyrazol-5-yl)methyl]-6,7,8,9-tetrahydro-5H-pyrimido[4,5-d]azepine] | ≥ 90 |
| CC(C)CCN1CCc2ncnc(N3CCN(C4CCC4)CC3)c2CC1 [Compound 161, 4-(4-cyclobutylpiperazin-1-yl)-7-(3-methylbutyl)-6,7,8,9-tetrahydro-5H-pyrimido[4,5-d]azepine] | ≥ 90 |
| CCCCN1CCc2ncnc(N3CCN(C4CCC4)CC3)c2CC1 [Compound 163, 7-butyl-4-(4-cyclobutylpiperazin-1-yl)-6,7,8,9-tetrahydro-5H-pyrimido[4,5-d]azepine] | ≥ 90 |
| CCCCCN1CCc2ncnc(N3CCN(C4CCC4)CC3)c2CC1 [Compound 164, 4-(4-cyclobutylpiperazin-1-yl)-7-pentyl-6,7,8,9-tetrahydro-5H-pyrimido[4,5-d]azepine] | ≥ 90 |
| CCCCCCN1CCc2ncnc(N3CCN(C4CCC4)CC3)c2CC1 [Compound 165, 4-(4-cyclobutylpiperazin-1-yl)-7-hexyl-6,7,8,9-tetrahydro-5H-pyrimido[4,5-d]azepine] | ≥ 90 |
| CC(C)CN1CCc2ncnc(N3CCN(C4CCC4)CC3)c2CC1 [Compound 166, 4-(4-cyclobutylpiperazin-1-yl)-7-isobutyl-6,7,8,9-tetrahydro-5H-pyrimido[4,5-d]azepine] | ≥ 90 |
| CCC(C)CN1CCc2ncnc(N3CCN(C4CCC4)CC3)c2CC1 (stereo not drawn) [Compound 167, 4-(4-cyclobutylpiperazin-1-yl)-7-(2-methylbutyl)-6,7,8,9-tetrahydro-5H-pyrimido[4,5-d]azepine] | ≥ 90 |
| CCC(CC)CN1CCc2ncnc(N3CCN(C4CCC4)CC3)c2CC1 [Compound 168, 4-(4-cyclobutylpiperazin-1-yl)-7-(2-ethylbutyl)-6,7,8,9-tetrahydro-5H-pyrimido[4,5-d]azepine] | ≥ 90 |
| c1nc2c(c(N3CCN(C4CCC4)CC3)n1)CCN(CC1CC1)CC2 [Compound 169, 4-(4-cyclobutylpiperazin-1-yl)-7-(cyclopropylmethyl)-6,7,8,9-tetrahydro-5H-pyrimido[4,5-d]azepine] | ≥ 90 |
| CCCC(C)CN1CCc2ncnc(N3CCN(C4CCC4)CC3)c2CC1 (stereo not drawn) [Compound 170, 4-(4-cyclobutylpiperazin-1-yl)-7-(2-methylpentyl)-6,7,8,9-tetrahydro-5H-pyrimido[4,5-d]azepine] | ≥ 90 |
| c1nc2c(c(N3CCN(C4CCC4)CC3)n1)CCN(CC1CCOC1)CC2 (stereo not drawn) [Compound 171, 4-(4-cyclobutylpiperazin-1-yl)-7-(tetrahydrofuran-3-ylmethyl)-6,7,8,9-tetrahydro-5H-pyrimido[4,5-d]azepine] | ≥ 90 |
| c1nc2c(c(N3CCN(C4CCC4)CC3)n1)CCN(Cc1ccc3c(c1)OCCO3)CC2 [Compound 173, 4-(4-cyclobutylpiperazin-1-yl)-7-(2,3-dihydro-1,4-benzodioxin-6-ylmethyl)-6,7,8,9-tetrahydro-5H-pyrimido[4,5-d]azepine] | ≥ 90 |
| c1nc2c(c(N3CCN(C4CCC4)CC3)n1)CCN(Cc1ccc(N3CCCC3)nc1)CC2 [Compound 178, 4-(4-cyclobutylpiperazin-1-yl)-7-[(6-pyrrolidin-1-ylpyridin-3-yl)methyl]-6,7,8,9-tetrahydro-5H-pyrimido[4,5-d]azepine] | ≥ 90 |
